The values that follow come from PubChem BioAssay AID463206 (Broad Institute, 2010).

Each structure is given as a SMILES string. Activity calls are given as the source filed them.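 The calls were made as follows: active = caspase luminescence falls with dose and the half-maximal concentration AC50 from the fitted curve is at or below a set limit; inconclusive = flat fit at 30 to 70% signal loss, or invalid fit; inactive = AC50 above the limit, or signal rises instead.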

The experiment has as its system INS-1E cytokine-induced caspase-3/7, Caspase-Glo luminescence, 48 h. Briefly: suppression of cytokine-driven beta-cell apoptosis – INS-1E rat cells, luminescence, orthogonal assay for beta-cell apoptosis protection project, dose response (AID 463206).
With `Cn1cccc1/C=N/NC(=O)Cc1cccs1`, the AC50 is > 26 µM (inactive).
On to `NS(=O)(=O)c1ccc(N/N=C/c2cn(-c3ccccc3)nc2-c2cccs2)c([N+](=O)[O-])c1`, for which the AC50 was 19 µM.
For `COc1cc2c(cc1OC)C(NC(=O)C(F)(F)F)CNC2=O` (stereo unspecified), the AC50 is > 26 µM (inactive).
The same measure for `CC1(C)CCN2CCC(C)(C)c3c(O)ccc1c32`: > 26 µM (inactive); for `C/C(=N\NC(=O)c1ccc(C)cc1)c1c(C)[nH]n(-c2ccccc2)c1=O`: > 26 µM (inactive); for `COC(=O)C1CCCCN1C(=O)c1cc(COc2cccc3cnccc23)on1` (stereo unspecified): > 26 µM (inactive).
As to `COc1ccc(CC(=O)Nc2nc(-c3ccc(F)c(F)c3)cs2)cc1OC`, the half-maximal activity concentration (AC50) was 26.5 µM.
On to `NC(N)=N/N=C/c1cn(-c2ccccc2)nc1-c1cccs1`, for which the AC50 is > 26 µM (inactive).
Take `Cc1ccc(O)c(/C=N/NC(=O)c2[nH]ncc2Br)c1`: the AC50 was > 26 µM (inactive).
With `Cc1cccc(NC(=S)N/N=C/c2ccc([N+](=O)[O-])s2)c1` the figure was > 26 µM (inactive); with `Oc1c(C(Nc2ccccn2)c2ccccn2)ccc2cccnc12` (stereo unspecified), > 12 µM (inactive).
With `O=S(=O)(c1cccs1)N1CCN(CC(O)COc2cc(Cl)ccc2Cl)CC1` (stereo unspecified) the figure was > 26 µM (inactive); with `CCc1cc[n+](C2=C([O-])c3ccccc3C(=O)/C2=N\S(=O)(=O)c2cccs2)cc1`, > 26 µM (inactive).
Take `Cc1ccc(N2C(=O)CSC2c2cccnc2)c(Cl)c1` (stereo unspecified): the AC50 is > 26 µM (inactive).
Consider `O=C(/C=C/c1cccc([N+](=O)[O-])c1)c1ccc([N+](=O)[O-])o1`, for which the AC50 is > 26 µM (inactive).
The same measure for `COc1ccccc1C(=O)Nc1nc2ccccc2[nH]1`: > 26 µM (inactive); for `CC(C)(C)C1CCC2(CC1)C(C#N)=C(SCC(=O)NC1CCCCC1)NC(=O)C2C#N` (stereo unspecified): > 26 µM (inactive); for `CC1CCC(C(C)C)C(OC(=O)Cn2c(COc3ccccc3)[n+](C)c3ccccc32)C1` (stereo unspecified): > 26 µM (inactive).
On to `COC(=O)c1ccc(NC(=O)c2cccnc2)cc1`, for which the AC50 was > 26 µM (inactive).
Take `C#CCOCCOCCOCCNc1nc(N2CCN(C(=O)CCCCCCCCCCNC(=O)[C@H]([C@@H](C)CC)n3cc(CCCCN=C(N)N)nn3)CC2)nc(N2CCN(C(=O)CCCCCCCCCCNC(=O)[C@H](CO)n3cc(CCCCCN)nn3)CC2)n1`: the AC50 is > 26 µM (inactive).
On to `COc1cnc(-c2ccccn2)nc1N(C)c1ccccc1`, for which the AC50 is > 26 µM (inactive).
`Cn1c(NN=O)nc2ccccc21`: the AC50 is > 26 µM (inactive).
The same measure for `Cc1cc(C)nc(SCC(=O)NC2=NN=C(c3ccc(Br)cc3)CS2)n1`: > 26 µM (inactive); for `Oc1ccc2ccccc2c1N=Nc1nccs1`: > 26 µM (inactive).
With `O=C(NCCc1cn2ccccc2n1)c1cc(COc2ccc3ncccc3c2)on1`, the AC50 is > 26 µM (inactive).
With `COc1ccccc1NC(=O)c1cc2cc(Br)ccc2cc1O` the figure was > 26 µM (inactive); with `CCCCCCCCCC[N+](C)(C)CC/C=C1/c2ccccc2Sc2ccc(Cl)cc21`, > 26 µM (inactive).
With `CCN(C1CCCCC1)S(=O)(=O)c1ccc(S(=O)(=O)NCc2ccncc2)cc1` the figure was > 26 µM (inactive).
On to `Cn1nccc1C(=O)N/N=C/c1c(O)ccc2ccccc12`, for which the AC50 was > 26 µM (inactive).
The same measure for `O=C(Nc1cccc(C(F)(F)F)c1)Nc1ccc(N2CCCC2)c(S(=O)(=O)Nc2ccccc2Cl)c1`: > 26 µM (inactive); for `Oc1cccc2ccc(Nc3ccccn3)nc12`: > 26 µM (inactive).
The same measure for `O=C(C#Cc1ccccc1)Nc1cccc(F)c1`: > 26 µM (inactive); for `Cc1ccc(C(=O)c2c(C)oc3c2C(=O)C(=O)c2ccccc2-3)cc1`: > 26 µM (inactive).
The same measure for `Cc1cc(C)n(-c2nc(NCCN(C)C)c3c4c(sc3n2)CCCC4)n1`: 13.1 µM; for `O=c1c2c3c(sc2n(CCN2CCCCC2)c(=O)n1Cc1ccco1)CCCCC3`: 25.4 µM; for `Cc1nc2ccccc2n1Cc1ccc(Br)cc1`: > 26 µM (inactive).
Take `COc1ccc(NC(=O)CN(C)C(=O)/C=C/c2ccc(S(=O)(=O)N3CCCCCC3)cc2)cc1`: the AC50 was > 26 µM (inactive).
Take `C(=C\c1nc(N2CCCCCC2)c2ccccc2n1)/c1ccccc1`: the AC50 is > 26 µM (inactive).
The same measure for `N#Cc1ccc(C(=O)Nc2nc(-c3cccs3)c(C(=O)C(F)(F)F)s2)cc1`: > 26 µM (inactive); for `Cn1nc(-c2ccc(Cl)cc2)nc2c(=O)n(C)c(=O)nc1-2`: > 26 µM (inactive); for `O=S(=O)(c1cc(F)ccc1F)N1CCN(c2ncnc3ccccc23)CC1`: > 26 µM (inactive).
With `O=C(Oc1c(CN2CCOCC2)cc(Cl)c2cccnc12)c1ccccc1`, the AC50 is > 26 µM (inactive).
For the compound `O=C(CC(O)(C(F)(F)F)C(F)(F)F)Nc1ccc(Cl)c(Cl)c1`, the AC50 was > 26 µM (inactive).
As for `Cc1ccc(C(=O)N2N=C(c3ccc(Br)cc3)CC2c2ccccc2O)cc1` (stereo unspecified), the AC50 is > 26 µM (inactive).
Consider `O=[N+]([O-])c1cnc(Sc2ccncn2)s1`, for which the AC50 was > 26 µM (inactive).
With `Cc1cc(C)cc(OCC(O)CN2CCC(CN3C(=O)c4cccc5cccc(c45)C3=O)CC2)c1` (stereo unspecified) the figure was > 26 µM (inactive).
With `Brc1ccc(N/N=C(/N=Nc2nn[nH]n2)c2ccccc2)cc1` the figure was > 26 µM (inactive); with `COc1ccc(C2/C=C\CN(C(=O)Nc3ccc(C(F)(F)F)cc3)CC(=O)N2Cc2ccc(F)cc2)cc1` (stereo unspecified), > 26 µM (inactive); with `CCOC(=O)c1cccc(-[n+]2c(-c3ccccc3)cc(-c3ccccc3)cc2-c2ccccc2)c1`, > 26 µM (inactive).
With `O=C(NCCOCCOCCNC(=O)c1cccnc1)c1cccnc1`, the AC50 was > 26 µM (inactive).
With `Cc1ccc2nc(-c3ccccn3)c(Nc3ccccc3C)n2c1` the figure was > 26 µM (inactive); with `COc1ccc2c(c1OC)C(=O)OC2Nc1nc(-c2ccccc2)cs1` (stereo unspecified), 16.1 µM.
With `CCOc1ccc(S(=O)(=O)NCc2ccncc2)cc1` the figure was > 26 µM (inactive); with `O=C(NCc1cccnc1)Nc1ccc([N+](=O)[O-])cc1`, > 26 µM (inactive).
Take `CC1CCC(C(C)C)C(OC(=O)Cn2c(-c3ccc(F)cc3)[n+](C)c3ccccc32)C1` (stereo unspecified): the AC50 was > 26 µM (inactive).
With `Cc1ccc2nc(NC(=O)c3ccccn3)sc2c1` the figure was > 26 µM (inactive); with `CCSC1=NCCN1C(=O)C(C)(C)Oc1ccc(Cl)cc1`, > 26 µM (inactive); with `Cc1sc2ncnc(NCC(O)c3ccc([N+](=O)[O-])cc3)c2c1C` (stereo unspecified), > 26 µM (inactive).
As to `Cc1nn(Cc2c(Cl)cccc2Cl)c(C)c1NC(=O)c1cn(-c2ccccc2)nc1-c1ccccc1`, the AC50 was > 26 µM (inactive).
Take `O=C(Nc1nc(NC(=O)c2ccco2)n(-c2ccccc2)n1)c1ccccc1`: the AC50 was > 26 µM (inactive).
The same measure for `CCCCCN=Cc1c(C)[nH]n(-c2nc3ccccc3s2)c1=O`: > 26 µM (inactive); for `CCN(CC)S(=O)(=O)c1ccc(NC(=O)Nc2cccc(C(F)(F)F)c2)cc1`: > 26 µM (inactive).
With `Cc1cccc(N2C(=S)N=C(Nc3c(C)cccc3C)C23CCOC(C)(C)C3)c1` (stereo unspecified), the AC50 is > 26 µM (inactive).
The same measure for `CC1=NN(c2ccc(C)c(C)c2)C(=O)/C1=C\C=C\c1ccc([N+](=O)[O-])o1`: > 26 µM (inactive); for `CCCCOCCCNc1ncnc2c1[nH]c1ccccc12`: > 26 µM (inactive).
Regarding `Cc1ccc(-c2cnc(NC(=O)CCC(=O)N(C)Cc3ccccc3)n2C)cc1`, the AC50 is > 26 µM (inactive).
With `O=[N+]([O-])c1ccc(N2CCN(C(=S)Nc3ccc(F)cc3)CC2)cc1` the figure was > 26 µM (inactive); with `COc1ccc(N=Nc2ccc(O)c3ncccc23)cc1`, > 12 µM (inactive).
With `COc1ccc(C)cc1Nc1n[n+](-c2ccccc2)c(-c2ccc(N(C)C)cc2)s1` the figure was > 26 µM (inactive); with `Cc1cc(C)c2c(C)[nH]nc2n1`, > 26 µM (inactive).
For `CCOc1cc(-c2sc(Nc3cc(C)ccc3OC)n[n+]2-c2ccccc2)ccc1OC`, the AC50 is > 26 µM (inactive).
With `COc1ccc(-c2cc(-c3nc4ccccn4c3NCc3ccccc3)ccc2OC)cc1` the figure was > 26 µM (inactive); with `N=c1c2c(n(Cc3ccc(Cl)cc3Cl)c3c1CCC3)CCCC2`, > 26 µM (inactive); with `CC(NCC(O)COCCC12CC3CC(CC(C3)C1)C2)c1ccccc1` (stereo unspecified), > 26 µM (inactive).
Take `CCCCCCn1ccc(=N)cc1`: the AC50 is > 26 µM (inactive).
As for `COCCC1CCCCN1C(=O)c1cc(COc2ccc(-n3cncn3)cc2)on1` (stereo unspecified), the AC50 was > 26 µM (inactive).
On to `COc1ccccc1N(CC(=O)N/N=C/c1c(O)ccc2ccccc12)S(C)(=O)=O`, for which the AC50 is > 26 µM (inactive).
With `CCOc1cc(N2CCOCC2)c(OCC)cc1NC(=O)COc1cccc2cccnc12` the figure was > 26 µM (inactive); with `O=c1c2ccccc2nc(N/N=C/c2c(O)ccc3ccccc23)n1O`, > 26 µM (inactive).
For `O=S(=O)(NCC1CCCO1)c1ccc(-c2ccc(S(=O)(=O)NCC3CCCO3)cc2)cc1` (stereo unspecified), the AC50 was > 26 µM (inactive).
The same measure for `Cc1ccc(-c2c(C#N)c(N)n3c(nc4ccccc43)c2C#N)cc1`: > 26 µM (inactive).
With `Cc1ccccc1C(=O)N1CCN(c2ccc(NC(=O)c3cccnc3)cc2)CC1`, the AC50 was > 26 µM (inactive).
With `Oc1ccc2ccccc2c1N=Nc1ccccn1` the figure was > 26 µM (inactive); with `CCCCOc1cc(NCc2ccccc2)c2ncn(C(C)C)c2c1`, > 26 µM (inactive); with `CC[C@H](C)[C@@H](C(=O)NCCCCCCCCCCC(=O)N1CCN(C(=O)OC(C)(C)C)CC1)n1cc(CCCCCNC(=O)OC(C)(C)C)nn1`, > 26 µM (inactive).
Regarding `C=C1C(=O)O[C@@H]2C[C@@H](C)[C@@H]3C=CC(=O)[C@@]3(C)[C@@H](O)[C@H]12`, the AC50 was > 26 µM (inactive).

Usually AC50 stands for the concentration at which the activity in the assay is half-maximal.
